Results: ChEMBL document CHEMBL2413072, “Synthesis and in vitro anticancer studies of novel C-2 arylidene congeners of lantadenes” (2013)

Assays:
Type in all cases: functional
UACC-62 [1] = assay: Growth inhibition of human UACC62 cells by sulforhodamine B assay; conditions: read-out: pTGI (converted)
IGROV-1 [2] = assay: Growth inhibition of human IGROV1 cells by sulforhodamine B assay
LOX IMVI = assay: Growth inhibition of human LOXIMVI cells by sulforhodamine B assay
SF-539 = assay: Growth inhibition of human SF539 cells by sulforhodamine B assay
SF-295 = assay: Growth inhibition of human SF295 cells by sulforhodamine B assay
MDA-MB-231 = assay: Growth inhibition of human MDA-MB-231 cells assessed as cell growth at 10^-4 M by sulforhodamine B assay; conditions: read-out: Activity
PC-3 = assay: Growth inhibition of human PC3 cells assessed as cell growth at 10^-4 M by sulforhodamine B assay; conditions: read-out: Activity
RXF 393 = assay: Growth inhibition of human RXF393 cells assessed as cell growth at 10^-4 M by sulforhodamine B assay; conditions: read-out: Activity
ACHN [3] = assay: Growth inhibition of human ACHN cells assessed as cell growth at 10^-4 M by sulforhodamine B assay; conditions: read-out: Activity
IGROV-1 [4] = assay: Growth inhibition of human IGROV1 cells assessed as cell growth at 10^-4 M by sulforhodamine B assay; conditions: read-out: Activity
SK-MEL-2 = assay: Growth inhibition of human SK-MEL-2 cells assessed as cell growth at 10^-4 M by sulforhodamine B assay; conditions: read-out: Activity
SNB-19 = assay: Growth inhibition of human SNB19 cells assessed as cell growth at 10^-4 M by sulforhodamine B assay; conditions: read-out: Activity
CAKI-1 [5] = assay: Growth inhibition of human CAKI-1 cells assessed as cell growth at 10^-6 M by sulforhodamine B assay; conditions: read-out: Activity
UACC-62 [6] = assay: Growth inhibition of human UACC62 cells assessed as cell growth at 10^-6 M by sulforhodamine B assay; conditions: read-out: Activity
SK-MEL-5 = assay: Growth inhibition of human SK-MEL-5 cells assessed as cell growth at 10^-6 M by sulforhodamine B assay; conditions: read-out: Activity
M14 = assay: Growth inhibition of human M14 cells assessed as cell growth at 10^-6 M by sulforhodamine B assay; conditions: read-out: Activity
SNB-75 = assay: Growth inhibition of human SNB75 cells assessed as cell growth at 10^-6 M by sulforhodamine B assay; conditions: read-out: Activity
COLO 205 = assay: Growth inhibition of human COLO205 cells assessed as cell growth at 10^-6 M by sulforhodamine B assay; conditions: read-out: Activity
NCI-H226 = assay: Growth inhibition of human NCI-H226 cells assessed as cell growth at 10^-6 M by sulforhodamine B assay; conditions: read-out: Activity
HOP-62 = assay: Growth inhibition of human HOP62 cells assessed as cell growth at 10^-6 M by sulforhodamine B assay; conditions: read-out: Activity
[7] = Growth inhibition of human Hs 578T cells assessed as cell growth at 10^-7 M by sulforhodamine B assay; conditions: read-out: Activity
SN12C = assay: Growth inhibition of human SN12C cells assessed as cell growth at 10^-7 M by sulforhodamine B assay; conditions: read-out: Activity
CAKI-1 [8] = assay: Growth inhibition of human CAKI-1 cells assessed as cell growth at 10^-7 M by sulforhodamine B assay; conditions: read-out: Activity
A549 = assay: Growth inhibition of human A549/ATCC cells assessed as cell growth at 10^-7 M by sulforhodamine B assay; conditions: read-out: Activity
UO-31 = assay: Growth inhibition of human UO31 cells assessed as cell growth at 10^-8 M by sulforhodamine B assay; conditions: read-out: Activity
ACHN [9] = assay: Growth inhibition of human ACHN cells assessed as cell growth at 10^-8 M by sulforhodamine B assay; conditions: read-out: Activity
[10] = read-out: LC50 (the source's name)
[11] = read-out: pLC50 (the source's name) (converted)

CC1(C)C[C@@H](O)[C@]2(C(=O)O)CC[C@]3(C)C(=CC[C@@H]4[C@@]5(C)C/C(=C\C=C\c6ccccc6)C(=O)C(C)(C)[C@@H]5CC[C@]43C)[C@@H]2C1
TGI (UACC-62 [1]): 3.72 µM
GI50 (IGROV-1 [2]; read-out: GI50): 4.14 µM
CC50 (IGROV-1 [2]; [10]): 73.8 µM
TGI (IGROV-1 [2]; read-out: TGI): 14.4 µM
GI50 (IGROV-1 [2]; read-out: pGI50 (converted)): 4.17 µM
CC50 (IGROV-1 [2]; [11]): 74.1 µM
TGI (IGROV-1 [2]; read-out: pTGI (converted)): 14.5 µM
GI50 (LOX IMVI; read-out: GI50): 1.9 µM
CC50 (LOX IMVI; [10]): 6.68 µM
TGI (LOX IMVI; read-out: TGI): 3.56 µM
GI50 (LOX IMVI; read-out: pGI50 (converted)): 1.91 µM
CC50 (LOX IMVI; [11]): 6.61 µM
TGI (LOX IMVI; read-out: pTGI (converted)): 3.55 µM
GI50 (SF-539; read-out: GI50): 2.86 µM
CC50 (SF-539; [10]): 36.7 µM
TGI (SF-539; read-out: TGI): 10.6 µM
GI50 (SF-539; read-out: pGI50 (converted)): 2.88 µM
CC50 (SF-539; [11]): 36.3 µM
TGI (SF-539; read-out: pTGI (converted)): 10.7 µM
GI50 (SF-295; read-out: GI50): 2.4 µM
CC50 (SF-295; [10]): 49.8 µM
TGI (SF-295; read-out: TGI): 7.56 µM
GI50 (SF-295; read-out: pGI50 (converted)): 2.4 µM
CC50 (SF-295; [11]): 50.1 µM
TGI (SF-295; read-out: pTGI (converted)): 7.59 µM
growth at 100 µM (MDA-MB-231): -93%
growth at 100 µM (PC-3): -67%
growth at 100 µM (RXF 393): -92%
growth at 100 µM (ACHN [3]): -93%
growth at 100 µM (IGROV-1 [4]): -59%
growth at 100 µM (SK-MEL-2): -72%
growth at 100 µM (SNB-19): -91%
growth at 1 µM (CAKI-1 [5]): 92%
growth at 1 µM (UACC-62 [6]): 88%
growth at 1 µM (SK-MEL-5): 95%
growth at 1 µM (M14): 91%
growth at 1 µM (SNB-75): 79%
growth at 1 µM (COLO 205): 108%
growth at 1 µM (NCI-H226): 83%
growth at 1 µM (HOP-62): 97%
growth at 0.1 µM [7]: 92%
growth at 0.1 µM (SN12C): 98%
growth at 0.1 µM (CAKI-1 [8]): 97%
growth at 0.1 µM (A549): 95%
growth at 0.01 µM (UO-31): 88%
growth at 0.01 µM (ACHN [9]): 97%
